In brackets after ≈: the same amount, converted by molar mass. Several values for one entry are separate records, joined by “and”; a condition that tells them apart may be missing. Identical values can stand only once. Like-named read-outs stand apart in the source and are kept apart here.
What was measured:
SMARCA2^BD = molecular target: T1, SMARCA2^BD (Homo sapiens, UniProt P51531); test: SPR binding to immobilised SMARCA2 bromodomain; conditions: benzoxazinone lead series, Fig. 1b; read-out: SMARCA2^BD SPR KD
T1 construct: P51531-2, residues 1373-1493 with additional N-terminal SM residues; GST (TEV site) (N, cleaved yes); made in house; host or cells: Escherichia coli BL21(DE3)
T1 sequence (P51531 1373-1493 isoform P51531-2): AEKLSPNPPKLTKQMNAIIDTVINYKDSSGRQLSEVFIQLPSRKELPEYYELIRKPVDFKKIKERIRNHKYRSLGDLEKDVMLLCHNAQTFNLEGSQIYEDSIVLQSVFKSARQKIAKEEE
Method: SMARCA4^BD was provided by the Structural Genomics Consortium (SGC), Toronto[32] and SMARCA2^BD and PRM1^BD5 were synthesised by GeneArt then subcloned into pDEST15 vectors (Invitrogen). The VCB complex was expressed and purified as described previously, with the modification that 0.3 mM IPTG was used for induction of expression. […] Both were stored in 20 mM 4-(2-hydroxyethyl)−1-piperazineethanesulfonic acid (HEPES), 150 mM sodium chloride and 1 mM tris(2-carboxyethyl)phosphine (TCEP) pH 7.5. SMARCA2^BD, SMARCA4^BD and PBRM1^BD5 were expressed in Escherichia coli BL21(DE3) as N-terminal GST fusion proteins with a TEV protease cleavage site. Expression and purification of these proteins has been described previously[32],[33]. Starter cultures were grown overnight at 37 °C in 10 mL of Luria-Bertani (LB) medium with ampicillin (100 μg/mL). The starter cultures were diluted (1:100) in Terrific Broth (TB) medium with ampicillin (100 μg/mL) and grown in a shaking incubator at 37 °C to an optical density (OD600) ~1 before the temperature was lowered for induction (to 23 °C for SMARCA2^BD or 18 °C for SMARCA4^BD and PRRM1^BD5). […] Cells were harvested by centrifugation and stored at −80 °C prior to purification. […] The Lysis buffers were as follows: for SMARCA2^BD: 50 mM HEPES, 500 mM sodium chloride, 5% glycerol, 5 mM dithiothreitol (DTT); for SMARCA4^BD: 25 mM HEPES, 0.3 M sodium chloride, 5% glycerol, 10 mM DTT, pH 7.5; for PBRM1^BD5: 25 mM HEPES, 300 mM sodium chloride, 5% glycerol, 10 mM DTT, pH 7.8; in each case supplemented with complete protease inhibitors (Roche). Affinity purification was performed using Glutathione Sepharose 4B (GE Healthcare) in batch mode or on-column. […] For SMARCA2^BD, prior to TEV protease cleavage the eluted GST-tagged BD was first dialysed into desalting buffer (20 mM HEPES, 250 mM sodium chloride, pH 7.0 + 0.5% glycerol). Where TEV cleavage was performed in solution, a second affinity (GST-trap) column purification step was carried out to remove the GST-tag and uncleaved GST-tagged protein. Proteins were further purified by SEC (HiLoad Superdex-75, 16/600) (GE Healthcare) and stored in Storage buffer (for SMARCA2^BD: 20 mM HEPES, 150 mM sodium chloride, pH 7.5; for SMARCA4^BD: 10 mM HEPES, 0.5 M NaCl, 5% glycerol, pH 7.5; for PBRM1^BD5: 20 mM HEPES, 300 mM NaCl, 5 mM DTT, pH 7.8). For AlphaScreen assays, eluted GST-tagged BDs were purified directly by SEC in the respective storage buffers without TEV cleavage. All chromatography purification steps were performed either at room temperature or 4 °C using an ÄKTA FPLC purification system (GE Healthcare) or a plastic Econo-Pac column (Bio-Rad).
SPR data were acquired on Biacore 8K or T200 instruments (Cytiva). Target proteins were immobilised at 25 °C on CM5 chips by amine coupling (EDC/NHS, Cytiva) in HBS-P+ running buffer (pH 7.4), containing 2 mM TCEP. […] The reference surface was subsequently deactivated using 1 M ethanolamine. […] Biotinylated VCB was prepared as previously described[27]: in brief, the complex was mixed 1:1 with EZ-Link NHS–PEG4–biotin (Thermo Scientific) and incubated at room temperature for 1 h. Unreacted NHS-biotin was removed using a PD-10 desalting column (Cytiva) into 20 mM HEPES, pH 7.5, 150 mM sodium chloride and 1 mM DTT. The reference surface was generated by deactivating the EDC/NHS-treated surface with 1 M ethanolamine. All interaction experiments were done at 6 °C in running buffer (20 mM TRIS, pH 8.3, 150 mM potassium chloride, 2 mM magnesium chloride, 2 mM TCEP, 0.005% TWEEN 20, 1% dimethyl sulfoxide). For ternary complex measurements, a sensor chip surface with VCB immobilised was used (preparation as described above). Experiments were run in dual-inject mode with 10 µM SMARCA present during the injection and dissociation phase. Sensorgrams from reference surfaces and blank injections were subtracted from the raw data prior to data analysis using Biacore Insight software.

Solubility testing = assay type: physicochemical; conditions: for solubility at 24 h: buffer, kinetic from dmso stock
Method: Dilution into a 1:1 mixture of acetonitrile and water was used as reference. After 24 h, the incubations were filtrated, and the filtrate was analyzed by LC-UV.

Microsomal stability = assay type: in vitro ADME; conditions: for Mic. Stab. Human / Mic. Stab. Human QH: human liver microsomes; for Mic. Stab. Mouse / Mic. Stab. Mouse QH: mouse liver microsomes; for Mic. Stab. Rat / Mic. Stab. Rat QH: rat liver microsomes
Method: […] Reactions were terminated by addition of acetonitrile and precipitates separated by centrifugation. Compound concentrations in supernatants were measured by HPLC-MS/MS and clearance was calculated from compound half-lives using the well-stirred liver model.

[1] = Bidirectional permeability measurement in Caco-2 cells; assay type: in vitro ADME; conditions: human
Method: Bidirectional permeability of test compounds across a Caco-2 cell monolayer was measured as described[43] with a modification of preincubation time[44]: Briefly, Caco-2 cells were seeded onto Transwell inserts (#3379, Corning, Wiesbaden, Germany) at a density of 160000 cells/cm^2 and cultured in DMEM (high glucose) containing 10% fetal bovine serum for 14–21 days. Cells were incubated with culture media containing 1 µM test compound for 24 h. […] Samples were taken at different time points for up to 2 h. Test compound in the samples was quantified with LC-MS/MS. To elucidate the role of drug transporter P-gp in the transcellular transport, permeability measurement was performed in the absence and presence of the selective P-gp inhibitor zosuquidar (5 µM final concentration). Apparent permeability coefficients (Papp,AB, Papp,BA) were calculated as follows:1 Papp,AB=Q_AB/C0×s×t 2 Papp,BA=Q_BA/C0×s×t where Q is the amount of compound recovered in the receiver compartment after the incubation time t, C0 the initial compound concentration given to the donor compartment, and s the surface area of the Transwell inserts. Efflux ratio is calculated as the quotient of Papp,BA (mean of duplicate) to Papp,AB (mean of duplicate). […] In addition, Transepithelial electrical resistance (TEER) values were measured for each plate before the permeability assay. All three parameters (efflux of the reference substrates, Papp values of the low permeable compound, and TEER values) were used to ensure the quality of the assays.

[2] = test system: VCB: PROTAC: SMARCA2^BD ternary complex; test: TR-FRET ternary complex affinity and cooperativity, SMARCA2; assay type: binding, human; conditions: ratio TR-FRET EC50 / TR-FRET EC50 +VCB measured in the same run, SMARCA2BD
[3] = molecular target: T2, VCB: PROTAC: SMARCA2^BD ternary complex (Homo sapiens, UniProt P51531); test: as above; assay type: binding
T2 construct: P51531-2, residues 1373-1493 with additional N-terminal SM residues; GST (TEV site) (N); His6 (TEV site) (N, cleaved yes); made in house; host or cells: SMARCA2^BD: Escherichia coli BL21(DE3)
T2 sequence (P51531 with tags, fused parts or gaps isoform P51531-2): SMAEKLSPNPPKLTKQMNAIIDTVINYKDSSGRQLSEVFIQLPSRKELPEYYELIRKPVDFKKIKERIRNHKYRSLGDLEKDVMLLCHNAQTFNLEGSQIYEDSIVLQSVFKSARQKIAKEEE

[4] = molecular target: VCB: PROTAC: SMARCA2^BD ternary complex (Homo sapiens, UniProt P40337+P51531); test: as above; assay type: binding; set-up: P51531-2, residues 1373-1493 with additional N-terminal SM residues; GST (TEV site) (N); His6 (TEV site) (N, cleaved yes); made in house; host or cells: SMARCA2^BD: Escherichia coli BL21(DE3)
VCB: PROTAC: SMARCA2^BD ternary complex (Homo sapiens, UniProt P40337+P51531), sequence (P51531 with tags, fused parts or gaps isoform P51531-2): as above
VCB: PROTAC: SMARCA2^BD ternary complex (Homo sapiens, UniProt P40337+P51531), sequence (P40337 54-213): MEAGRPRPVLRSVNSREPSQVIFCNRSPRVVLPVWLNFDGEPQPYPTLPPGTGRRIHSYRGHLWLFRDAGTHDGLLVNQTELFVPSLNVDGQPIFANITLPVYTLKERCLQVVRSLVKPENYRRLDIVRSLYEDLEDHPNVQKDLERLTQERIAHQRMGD
VCB: PROTAC: SMARCA2^BD ternary complex (Homo sapiens, UniProt P40337+P51531), sequence (Q15369 17-112 partner): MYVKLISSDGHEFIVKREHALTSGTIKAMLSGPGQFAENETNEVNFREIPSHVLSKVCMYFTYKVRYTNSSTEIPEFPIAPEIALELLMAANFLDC
VCB: PROTAC: SMARCA2^BD ternary complex (Homo sapiens, UniProt P40337+P51531), sequence (Q15370 1-104 partner): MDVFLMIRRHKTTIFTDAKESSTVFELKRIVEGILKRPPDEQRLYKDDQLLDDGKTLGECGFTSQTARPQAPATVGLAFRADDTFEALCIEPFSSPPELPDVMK

SMILES: CN1CCN(c2nc(=O)c3c(Br)cccc3o2)CC1 [R = Br]
- Kd (SMARCA2^BD): 9 µM

SMILES: CN1CCN(c2nc(=O)c3c(Cl)cccc3o2)CC1 [R = Cl]
- Kd (SMARCA2^BD): 25 µM

SMILES: CN1CCN(c2nc(=O)c3c(F)cccc3o2)CC1 [R = F]
- Kd (SMARCA2^BD): > 25 µM

SMILES: CN1CCN(c2nc(=O)c3ccccc3o2)CC1 [R = H]
- Kd (SMARCA2^BD): > 25 µM

SMILES: CN1CCN(c2nc(=O)c3c(I)cccc3o2)CC1 [R = I]
- Kd (SMARCA2^BD): 18 µM

SMILES: O=c1nc2n(C3CCCC3)c3cc(C4CCNCC4)ccc3n2c2cccc(Br)c12 [compound 4]
- solubility at 24 h (Solubility testing; pH 4.5, aqueous buffer, pH 4.5, read-out: Solubility pH 4.5): 85 µg/mL (≈ 183 µM)
- solubility at 24 h (Solubility testing; pH 6.8, aqueous buffer, pH 6.8, read-out: Solubility pH 6.8): 79 µg/mL (≈ 170 µM)
- Mic. Stab. Human (Microsomal stability): <24 % QH
- Mic. Stab. Human QH (Microsomal stability): <24.400%
- Mic. Stab. Mouse (Microsomal stability): <24 % QH
- Mic. Stab. Mouse QH (Microsomal stability): 25.670%
- Mic. Stab. Rat (Microsomal stability): <23 % QH
- Mic. Stab. Rat QH (Microsomal stability): <23.080%
- Papp A→B at 1 µM ([1]; Caco-2, pH 7.4, Caco-2, a to b, read-out: Caco-2 Pab): 2.55 ×10⁻⁶ cm/s
- Papp B→A at 1 µM ([1]; Caco-2, pH 7.4, Caco-2, b to a, read-out: Caco-2 Pba): 32.6 ×10⁻⁶ cm/s
- efflux ratio at 2 h, 1 µM ([1]; Caco-2, pH 7.4, Caco-2, read-out: Caco-2 Efflux ratio): 12.8
- cooperativity α (SMARCA2BD) [2]: 1.2
- EC50 ([3]; SMARCA2 BD EC50, binary, PROTAC alone, individual replicates): 0.0884 µM
- EC50 ([3]; TR-FRET SMARCA2BD EC50, TR-FRET competition for SMARCA2BD, without VCB, mean ± SD): 0.088 µM
- EC50 ([4]; TR-FRET Ternary SMARCA2BD EC50 (PROTAC + VCB), TR-FRET competition for SMARCA2BD, + VCB, mean ± SD): 0.074 µM
- EC50 ([4]; Ternary SMARCA2 BD EC50 (PROTAC + VCB), PROTAC + VCB, individual replicates): 0.0735 µM

SMILES: Cc1ncsc1-c1ccc([C@@H](COCCN2CCC(c3ccc4c(c3)n(C3CCCC3)c3nc(=O)c5c(Br)cccc5n43)CC2)NC(=O)[C@@H]2C[C@@H](O)CN2C(=O)[C@@H](NC(=O)C2(F)CC2)C(C)(C)C)cc1 [compound 24]
- Solubility pH 4.5 (Solubility testing; pH 4.5): <1.000 <1.000 ug/mL
- Solubility pH 6.8 (Solubility testing; pH 6.8): <1.000 <1.000 ug/mL
- Mic. Stab. Human (Microsomal stability): 59 ± 0.4 % QH
- Mic. Stab. Human QH (Microsomal stability): 59.130% and 58.510%
- Mic. Stab. Mouse (Microsomal stability): 40 ± 2 % QH
- Mic. Stab. Mouse QH (Microsomal stability): 38.210% and 41.130%
- Mic. Stab. Rat (Microsomal stability): 31 % QH
- Mic. Stab. Rat QH (Microsomal stability): < 23.080% and 30.780%

— article PMC9551036, “A selective and orally bioavailable VHL-recruiting PROTAC achieves SMARCA2 degradation in vivo” (Nature Communications, 2022)
